Data reported in paper PMC7125926 (Antiviral Research, 2015).
Where “and” joins values, the source holds several entries; their conditions need not be identical. Identical values can stand only once. Entries after “also recorded” stand apart in the source; their conditions may differ. Counter-ions that a name gives are not always drawn. Like-named read-outs stand apart in the source and are kept apart here.

Key:
[1] = test system: PR8 (H1N1) influenza virus; assay type: cell-based
[2] = MTT assay of drug toxicity in mouse lung slices; assay type: cell-based
influenza virus [3] = conditions: mouse, cited from earlier work
IP-10 = experiment: tissue or blood; assay type: cell-based, mouse
influenza virus [4] = assay type: in vivo, mice; conditions: Fig. S5
influenza A virus = conditions: ref An et al., 2014; cited from earlier work
[5] = read-out: NA-EC50: 50% effective concentration determined by NA activity assay
[6] = read-out: IP-10-EC50: 50% effective concentration determined by ELISA of IP-10
[7] = Mus musculus, 48 h, read-out: IP-10-EC50: 50% effective concentration determined by ELISA of IP-10

Row | Structure (SMILES) | effect on virus replication / NA activity in lung slices (in words) [1] | CC50 at 48 h [2] | In vivo: the protection effect of mice from lethal influenza infection (influenza virus [3]) | effect on IP-10 levels in lung slices (in words) (IP-10) | EC50 (IP-10; [6]) | protection of mice from lethal doses of influenza virus infection (in words) (influenza virus [4]) | antiviral activity in MDCK cells (in words) (influenza A virus) | further results
1 | C[S+]([O-])c1ccc(-c2nc(-c3ccncc3)c(-c3ccc(F)cc3)[nH]2)cc1 (centres unmarked) [SB203580] | neither inhibited virus replication | > 100 µM | + | dose dependently decreased IP-10 levels | – | – | – | –
2 | O=C(O[C@@H]1Cc2c(O)cc(O)cc2O[C@@H]1c1cc(O)c(O)c(O)c1)c1cc(O)c(O)c(O)c1 [EGCG] | dose dependently decrease NA levels | – | + | dose dependently decrease | 3.3 µM | – | – | EC50 [1, 5]: 50.1 µM
3 | Clc1ccccc1C(c1ccccc1)(c1ccccc1)n1ccnc1 [Clotrimazole] | inhibited neither | 16.3 µM | – | inhibited neither | – | failed to protect mice | known antiviral activity | –
4 | CN(C)CCCOc1nn(Cc2ccccc2)c2ccccc12 [Benzydamine] | inhibited neither | 113 µM | – | inhibited neither | – | failed to protect mice | known antiviral activity | –
5 | CCCCC/C=C/C=C1/C(=O)C=C[C@@H]1C/C=C\CCCC(=O)O [15d-PGJ2, 15-deoxy-Δ^12,14-prostaglandin J2] | neither inhibited virus replication | – | + | dose dependently decreased IP-10 levels | 0.2 µM | – | – | inhibition of virus replication (influenza virus [3]; in vivo): does not inhibit virus replication; mice protected from death against lethal influenza infection (influenza virus [3]; in vivo): 79%
6 | CCN(CC)CCOC(=O)C(Cc1cccc2ccccc12)CC1CCCO1 (centres unmarked) [Nafronyl oxalate] | not showing any antiviral activity | 122 µM | – | inhibited the inflammatory response | – | – | known antiviral activity | EC50 (IP-10; [7]): 22.1 µM
7 | CCCC(C(=O)OCCN(CC)CC)(c1ccccc1)c1ccccc1 [Proadifen] | inhibited neither | 32.2 µM | – | inhibited neither | – | failed to protect mice | known antiviral activity | –
8 | CC(C)OC(=O)C(C)(C)Oc1ccc(C(=O)c2ccc(Cl)cc2)cc1 [Fenofibrate] | inhibited neither | > 200 µM | – | inhibited neither | – | failed to protect mice | known antiviral activity | –
9 | NC(=O)c1ncn([C@@H]2O[C@H](CO)[C@@H](O)[C@H]2O)n1 [Ribavirin, ribavirin] | dose dependent inhibition; also recorded: efficiently inhibited virus replication | > 200 µM | – | – | – | – | – | EC50 ([1]; read-out: NA-EC50: 50% effective concentration determined by NA inhibition): 25.4 µM and 28.3 µM and 17.7 µM; EC50 (IP-10; [7]): 21.8 µM; EC50 (IP-10; Mus musculus, 48 h, read-out: IP-10-EC50: 50% effective concentration determined by IP-10 inhibition): 21.8 µM; EC50 (IP-10; read-out: IP-10-EC50: 50% effective concentration determined by IP-10 inhibition): 17.8 µM and 20.6 µM and 14.2 µM
10 | N#CC(=C(/N)Sc1ccccc1N)/C(C#N)=C(/N)Sc1ccccc1N [U0126] | dose dependent inhibition; also recorded: dose dependently decrease NA levels | – | + | dose dependently decrease | 1.3 µM | – | – | EC50 [1, 5]: 12 µM
11 | CCN(CC)CCOC(=O)C1(C2CCCCC2)CCCCC1 [Dicyclomine] | – | – | – | inhibited neither | – | – | – | –
12 | CC(C)=C1C/C=C(\C)CC/C=C(\C)CC1=O [Gemacrone] | efficiently inhibited virus replication | – | + | – | 17.6 µM | – | – | EC50 [1, 5]: 23.1 µM
